“Also recorded” adds a separate entry of the source. Where a SMILES comes first, the peptide text is derived from it. The star is where a group is joined. Cbz = O=C(OCc1ccccc1)*
Tests used:
MLKL = MLKL protein levels in chondrocytes treated with proteasome or lysosome inhibitors (Western blotting); format: cell-based, mouse; settings: treatment for 6 hours
Description: (§1) Cells were lysed in an M2 buffer, and mouse tissues were lysed in a lysis buffer containing 50 mM Tris-HCl (pH 7.5), 150 mM NaCl, 50 mM NaF, 1% Tween 20, 0.2% NP-40, and a protease inhibitor. Equal amounts of cell extracts were separated using SDS-PAGE (6% stacking gel and 10% running gel) and analyzed through immunoblotting.

chondrocytes = assay: Cell viability / cytotoxicity by LDH assay in chondrocytes; format: cell-based, mouse; settings: for cytotoxic effects on chondrocytes (LDH release assay, Western blotting, phase-contrast microscopy): chondrocytes infected with Ad-C or Ad-Rip3
Description: Mouse articular chondrocytes were isolated from the cartilage of ICR mice on the 5th day after birth, enzymatically digested with protease and collagenase, and then maintained in DMEM (Capricorn Scientific GmbH: Hessen, Germany) supplemented with 10% FBS, 100 units/mL penicillin and 100 μg/mL streptomycin. On the 3rd day, cells (4.25×10^5 cells/well) were infected with adenovirus or treated with recombinant protein. Mlkl+/+ and Mlkl−/− MEFs were maintained in DMEM supplemented with 10% FBS and penicillin-streptomycin. Cell viability was assessed using a lactate dehydrogenase (LDH) colorimetric assay kit (Bio Vision (Milpitas, CA, USA)). Chondrocytes were dispensed into a 96-well dish (1.5×10^4 cells/well), cultured for 24 hours (5% CO2, 37° C.), and treated with various concentrations of AZ-628, selumetinib, and neratinib for 24 hours. The supernatant was analyzed using a microplate reader at 495 nm. Untreated (100% viable) and Triton X-100 treated (0% viable) samples were used for normalization. The viability was calculated as follows.

RIP3 = target: T1, RIP3 (Mus musculus, UniProt Q9QZL0); assay: RIP3 kinase activity / RIP3 phosphorylation by Western blotting in Ad-Rip3-infected chondrocytes; format: cell-based; settings: RIP3-overexpressing chondrocytes
T1 construct: host or cells: primary mouse articular chondrocytes (ICR mice), adenoviral infection
Description: (§2) Mouse articular chondrocytes were isolated from the cartilage of ICR mice on the 5th day after birth, enzymatically digested with protease and collagenase, and then maintained in DMEM (Capricorn Scientific GmbH: Hessen, Germany) supplemented with 10% FBS, 100 units/mL penicillin and 100 μg/mL streptomycin. On the 3rd day, cells (4.25×10^5 cells/well) were infected with adenovirus or treated with recombinant protein. Mlkl+/+ and Mlkl−/− MEFs were maintained in DMEM supplemented with 10% FBS and penicillin-streptomycin.
as §1

[1] = system: RIP3-overexpressing chondrocytes; assay: MMP3, MMP13 and COX2 expression (RT-PCR, qPCR, Western blotting) in Ad-Rip3-infected chondrocytes; format: cell-based, mouse
Description: as §2, §1
Total RNA was extracted from articular chondrocytes using a TRIzol reagent (Molecular Research Center (Cincinnati, OH, USA)) and then reverse-transcribed into complementary DNA (cDNA) using ImProm-II™ Transcriptase (Promega (Madison, WI, USA)), followed by amplification through PCR or qPCR using the primers shown in Table 2 below. qPCR was performed using SYBR premix Ex Taq (TaKaRa Bio., Kusatsu, Shiga, Japan), and the results thereof were normalized to Gapdh and represented as fold changes compared to controls.

T1 sequence (Q9QZL0 whole entry): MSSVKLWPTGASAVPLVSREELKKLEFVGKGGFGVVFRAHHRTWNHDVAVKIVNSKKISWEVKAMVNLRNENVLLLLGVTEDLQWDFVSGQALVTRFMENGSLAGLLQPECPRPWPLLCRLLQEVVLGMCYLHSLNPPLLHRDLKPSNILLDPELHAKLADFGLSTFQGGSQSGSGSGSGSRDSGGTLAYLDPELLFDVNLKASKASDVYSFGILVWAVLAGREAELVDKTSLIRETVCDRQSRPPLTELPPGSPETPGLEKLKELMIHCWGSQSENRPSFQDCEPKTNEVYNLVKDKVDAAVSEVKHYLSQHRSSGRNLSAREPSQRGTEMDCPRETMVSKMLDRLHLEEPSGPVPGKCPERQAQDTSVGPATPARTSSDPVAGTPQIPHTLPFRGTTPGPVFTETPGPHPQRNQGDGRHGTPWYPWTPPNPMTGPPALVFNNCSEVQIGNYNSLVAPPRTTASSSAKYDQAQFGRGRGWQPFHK

CC(C)C[C@@H](C=O)NC(=O)[C@H](CC(C)C)NC(=O)[C@H](CC(C)C)NC(=O)OCc1ccccc1 [MG132] (Cbz-Leu-Leu-Leu-aldehyde)
MLKL protein levels (MLKL): did not change

CCN(CC)CCCC(C)Nc1ccnc2cc(Cl)ccc12 (stereo not drawn) [CQ, Chloroquine diphosphate]
MLKL protein levels (MLKL): did not change

HS-1371
cytotoxic effects on chondrocytes (LDH release assay, Western blotting, phase-contrast microscopy) (chondrocytes): greater cytotoxic effects on chondrocytes than AZ-628

CC(C)S(=O)(=O)c1ccc2nccc(Nc3ccc4scnc4c3)c2c1 [GSK 872]
cytotoxic effects on chondrocytes (LDH release assay, Western blotting, phase-contrast microscopy) (chondrocytes): greater cytotoxic effects on chondrocytes than AZ-628

Cc1ccc(NC(=O)c2cccc(C(C)(C)C#N)c2)cc1Nc1ccc2ncn(C)c(=O)c2c1 [AZ-628]
RIP3 (kinase) activity (RIP3): potent RIP3 kinase inhibitor; also recorded: attenuates RIP3 kinase activity | inhibition of osteoarthritis manifestations in RIP3-overexpressing chondrocytes ([1]; compared with selumetinib or neratinib): more effectively inhibited | Mmp3 and Cox2 expression (osteoarthritis-related gene expression) ([1]; qPCR, RIP3-overexpressing chondrocytes treated with RIP3 kinase inhibitors): decreased; also recorded: attenuated | cytotoxic effects in chondrocytes (LDH assay) (chondrocytes; at 2 μM, 24 hours): no toxicity | cytotoxic effects on chondrocytes (LDH release assay, Western blotting, phase-contrast microscopy) (chondrocytes): without chondrocyte toxicity
